From ChEMBL document CHEMBL1201862, “PubChem BioAssay data set” (2004)
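Grown in 96-well plates, cells were treated for 48 hours with each compound at five concentrations. Insufficient inhibition: endpoint recorded as highest concentration tested. GI50 is the concentration that inhibits growth by half.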 Activity calls are given as the source filed them. Cut-off read from the data, not from the text of the source: active = GI50 up to about 1.1 µM and inactive = higher.

How the values were obtained:
Test in all cases: NCI anticancer screen, dose series, 48 h
NCI-H23 = system: NCI-H23
SK-MEL-5 = system: SK-MEL-5
MOLT-4 = system: MOLT-4
ACHN = system: ACHN
MDA-N = system: MDA-N
Hs-578T = system: Hs-578T
CCRF-CEM = system: CCRF-CEM
PC-3 = system: PC-3
NCI-H226 = system: NCI-H226
K562 = system: K562
A498 = system: A498
RPMI-8226 = system: RPMI-8226
SF-295 = system: SF-295
NCI-H522 = system: NCI-H522
SR = system: SR
KM12 = system: KM12
SNB-19 = system: SNB-19
OVCAR-4 = system: OVCAR-4
DU-145 = system: DU-145
SW-620 = system: SW-620
SK-OV-3 = system: SK-OV-3
MDA-MB-231 = system: MDA-MB-231
SK-MEL-2 = system: SK-MEL-2
HCT-116 = system: HCT-116
NCI-H460 = system: NCI-H460
HT-29 = system: HT-29
SF-268 = system: SF-268
LOX IMVI = system: LOX IMVI
TK-10 = system: TK-10
T47D = system: T47D
CAKI-1 = system: CAKI-1
M14 = system: M14
HCT-15 = system: HCT-15
HOP-62 = system: HOP-62
HL-60 = system: HL-60
UACC-257 = system: UACC-257
SF-539 = system: SF-539
SK-MEL-28 = system: SK-MEL-28
SN12C = system: SN12C
OVCAR-8 = system: OVCAR-8
OVCAR-3 = system: OVCAR-3
U-251 = system: U-251
BT-549 = system: BT-549
NCI/ADR-RES = system: NCI/ADR-RES
786-0 = system: 786-0
Malme-3M = system: Malme-3M
HCC 2998 = system: HCC 2998
EKVX = system: EKVX
A549 = system: A549
COLO 205 = system: COLO 205
IGROV-1 = system: IGROV-1
RXF 393 = system: RXF 393
UACC-62 = system: UACC-62
MCF7 = system: MCF7
OVCAR-5 = system: OVCAR-5
MDA-MB-435 = system: MDA-MB-435
UO-31 = system: UO-31
SNB-75 = system: SNB-75
HOP-92 = system: HOP-92

Measured: GI50

COc1cc2c(cc1OC)C(=O)N(NC1=NCCN1)C2=O
> 100 µM: HCT-15
inactive: NCI-H23 > 100 µM | SK-MEL-5 > 100 µM | MOLT-4 > 100 µM | ACHN > 100 µM | MDA-N > 100 µM | Hs-578T > 100 µM | CCRF-CEM > 100 µM | PC-3 > 100 µM | NCI-H226 > 100 µM | K562 > 100 µM | A498 > 100 µM | RPMI-8226 > 100 µM | SF-295 > 100 µM | NCI-H522 > 100 µM | SR 63 µM | KM12 > 100 µM | SNB-19 > 100 µM | OVCAR-4 > 100 µM | DU-145 > 100 µM | SW-620 > 100 µM | SK-OV-3 > 100 µM | MDA-MB-231 > 100 µM | SK-MEL-2 > 100 µM | HCT-116 > 100 µM | NCI-H460 > 100 µM | HT-29 > 100 µM | SF-268 > 100 µM | LOX IMVI > 100 µM | TK-10 > 100 µM | T47D > 100 µM | CAKI-1 > 100 µM | M14 > 100 µM | HOP-62 > 100 µM | HL-60 > 100 µM | UACC-257 > 100 µM | SF-539 > 100 µM | SK-MEL-28 > 100 µM | SN12C > 100 µM | OVCAR-8 > 100 µM | OVCAR-3 > 100 µM | U-251 > 100 µM | BT-549 > 100 µM | NCI/ADR-RES > 100 µM | 786-0 > 100 µM | Malme-3M > 100 µM | HCC 2998 > 100 µM | EKVX > 100 µM | A549 > 100 µM | COLO 205 > 100 µM | IGROV-1 > 100 µM | RXF 393 > 100 µM | UACC-62 > 100 µM | MCF7 > 100 µM | OVCAR-5 > 100 µM | MDA-MB-435 > 100 µM

O=c1ccc2ccc(OP(=O)(O)O)cc2o1
inactive: NCI-H23 > 100 µM | SK-MEL-5 > 100 µM | MOLT-4 > 100 µM | ACHN > 100 µM | MDA-N > 100 µM | Hs-578T > 100 µM | CCRF-CEM > 100 µM | PC-3 > 100 µM | NCI-H226 > 100 µM | K562 > 100 µM | A498 > 100 µM | RPMI-8226 > 100 µM | SF-295 > 100 µM | NCI-H522 > 100 µM | SR > 100 µM | KM12 > 100 µM | SNB-19 > 100 µM | OVCAR-4 > 100 µM | DU-145 93.1 µM | SW-620 > 100 µM | SK-OV-3 > 100 µM | MDA-MB-231 > 100 µM | SK-MEL-2 > 100 µM | HCT-116 > 100 µM | NCI-H460 > 100 µM | HT-29 > 100 µM | SF-268 > 100 µM | LOX IMVI > 100 µM | UO-31 > 100 µM | TK-10 > 100 µM | T47D > 100 µM | CAKI-1 > 100 µM | M14 > 100 µM | HOP-62 > 100 µM | HL-60 > 100 µM | UACC-257 > 100 µM | SF-539 > 100 µM | SK-MEL-28 > 100 µM | SN12C > 100 µM | OVCAR-8 > 100 µM | OVCAR-3 > 100 µM | U-251 > 100 µM | BT-549 > 100 µM | NCI/ADR-RES > 100 µM | 786-0 > 100 µM | Malme-3M > 100 µM | HCC 2998 > 100 µM | EKVX > 100 µM | SNB-75 > 100 µM | A549 > 100 µM | COLO 205 > 100 µM | IGROV-1 > 100 µM | RXF 393 > 100 µM | UACC-62 > 100 µM | MCF7 > 100 µM | OVCAR-5 > 100 µM | MDA-MB-435 > 100 µM
> 100 µM: HCT-15

Cc1cc2ccccc2c[n+]1CC(O)C[n+]1cc2ccccc2cc1C
> 100 µM: HCT-15
inactive: NCI-H23 > 100 µM | SK-MEL-5 > 100 µM | MOLT-4 > 100 µM | ACHN > 100 µM | MDA-N > 100 µM | Hs-578T > 100 µM | PC-3 > 100 µM | NCI-H226 > 100 µM | K562 > 100 µM | A498 > 100 µM | RPMI-8226 > 100 µM | SF-295 20.1 µM | NCI-H522 > 100 µM | SR > 100 µM | KM12 > 100 µM | SNB-19 > 100 µM | OVCAR-4 > 100 µM | DU-145 > 100 µM | SW-620 > 100 µM | MDA-MB-231 > 100 µM | SK-MEL-2 > 100 µM | HCT-116 > 100 µM | NCI-H460 > 100 µM | HT-29 > 100 µM | SF-268 > 100 µM | LOX IMVI > 100 µM | HOP-92 > 100 µM | UO-31 > 100 µM | TK-10 > 100 µM | T47D > 100 µM | CAKI-1 > 100 µM | M14 > 100 µM | HOP-62 82.6 µM | UACC-257 > 100 µM | SF-539 > 100 µM | SK-MEL-28 > 100 µM | SN12C > 100 µM | OVCAR-8 > 100 µM | OVCAR-3 51.6 µM | U-251 > 100 µM | BT-549 > 100 µM | NCI/ADR-RES > 100 µM | 786-0 > 100 µM | Malme-3M > 100 µM | HCC 2998 > 100 µM | EKVX > 100 µM | SNB-75 > 100 µM | A549 > 100 µM | COLO 205 > 100 µM | IGROV-1 > 100 µM | RXF 393 > 100 µM | UACC-62 > 100 µM | MCF7 > 100 µM | OVCAR-5 > 100 µM | MDA-MB-435 > 100 µM
